In US8188150B2, “Use of beta-aminoalcohols in the treatment of inflammatory disorders and pain” (Biocopea Limited, priority 2006, dated 2012):

Experiments:
[1] = system: IL-10; experiment: LPS Mouse Assay, serum IL-10 by ELISA; format: in vivo, Balb C ByJ mice; conditions: i.p. or oral, 30 minutes before 1 mg/kg LPS i.p.; serum 2 hours after LPS
Experimental: (§1) 7 week-old Balb C ByJ mice (24-28 g) were administered, either by i.p. (5 ml/kg) or oral (10 ml/kg) administration, with vehicle or test article. 30 minutes later these animals were challenged with an intraperitoneal injection of 1 mg/kg LPS. 2 hours after LPS challenge blood samples were collected under light isoflurane anaesthesia into normal tubes by retro-orbital puncture. Samples were allowed to clot at room temperature and then spun at 6000 g for 3 min at 4° C. Serum was stored at −20° C. until use. Serum TNFα and IL-10 levels were analysed in duplicate by ELISA technique.

[2] = system: inflammation induced by carrageenan paw injection; experiment: Carrageenan Paw Assay; format: in vivo, male Wistar rats; conditions: oral gavage, half an hour before 2% carrageenan; paw measured at 1-5 hours
Experimental: Fasted (18 hour) male Wistar rats (105-130 g) were weighed and a basal mercury plethysmometer reading was taken of the right hind paw by submerging the paw in the mercury up to the tibiotarsal joint. Subsequently, vehicles, reference items and test articles were administered by oral gavage (10 ml/kg). Half an hour after treatment 0.1 ml of 2% carrageenan in 0.9% saline was injected into the subplanatar area of the right hind paw. The right paw was measured again with the plethysmometer at 1, 2, 3, 4 and 5 hours after carrageenan administration.

[3] = system: TNFα; experiment: LPS Mouse Assay, serum TNFα by ELISA; format: in vivo, Balb C ByJ mice; conditions: i.p. or oral, 30 minutes before 1 mg/kg LPS i.p.; serum 2 hours after LPS
Experimental: as §1

## CC(C)(CO)NCC(=O)c1cc(Cl)c(N)c(Cl)c1 [Compound (3), 1-(4-Amino-3,5-dichlorophenyl)-2-(1-hydroxy-2-methylpropan-2-ylamino)ethanone]
[1]
  effect on serum IL-10: potentiating effects
[2]
  effect on inflammation induced by carrageenan paw injection: dose-dependant inhibitory effect
[3]
  effect on serum TNFα: strong inhibitory effects
